Assay [1] deals with α-tocopherol transfer protein (α-TTP). Conditions: relative affinity, RRR-α-tocopherol essentially 100%; cited from earlier work.
A short description of assay [2]: DPPH assay (antioxidant activity, free radical scavenging). The format is biochemical. Conditions: 5 concentrations, 0.1 mM DPPH, water:methanol 1:1, reading after 30 min at 518 nm, read-out: IC50, the point at which 50% of DPPH had been reduced. The source says: Assays that may be used to measure free radical scavenging properties include, for example, the DPPH assay and the ABTS assay. The 1,1-diphenyl-2-picryl hydrazyl (DPPH) radical is a stable free radical of purple color. Adding an antioxidant reduces the DPPH radical, which can be observed by color change (to yellow) in a spectrophotometer, for example by measuring absorbance at 518 nm. Mixing 2,2-α-azino-bis-(3-ethylbenzthiazoline-6-sulfonic acid) (ABTS) and hydrogen peroxide produces the ABTS radical (ABTS^●). Subsequent incubation with peroxidase produces the radical cation ABTS^•+. Adding an antioxidant causes an attenuation of the color change, which can be measured for example at 734 nm. The activity of an antioxidant is conventionally expressed as the concentration of an equivalent millimolar standard Trolox solution.
A stock solution of DPPH in methanol, 0.4 mM was prepared and stored in the dark at −20° C. prior to use. A test sample was diluted with water (pH=3.5 prepared by addition of acetic acid) to 1 ml. The sample was then added to the dilute DPPH stock in methanol to obtain a final sample volume of 2 ml with a 0.1 mM DPPH concentration. The water:methanol ratio was 1:1 (v/v). A blank was prepared with 1 ml of water (pH=3.5) and pure methanol. […] Absorption readings were taken after 30 min at 518 nm using a Geminys 6 spectrophotometer (Thermo Scientific, Waltham, Mass.). […]
(The DPPH test is a chemical assay of radical scavenging.)

This is an account of results in US9220787B2, “Vitamin E conjugates, and their uses as antioxidants and prodrug delivery vehicles” (Board of Supervisors of Louisiana State University And …, priority 2010, dated 2015).

With `Cc1c(C)c2c(c(C)c1O)CC[C@@](C)(CCC[C@H](C)CCC[C@H](C)CCCC(C)C)O2` [RRR-α-tocopherol], the “affinity of Alpha-TTP” value in assay [1] was around 100%.
Take `Cc1c(C)c2c(c(C)c1O)CCC(C)(C(=O)O)O2` (stereo not shown) [Trolox, 6-hydroxy-2,5,7,8-tetramethylchroman-2-carboxylic acid]: the “affinity of Alpha-TTP” value in assay [1] is reported as 9%.
For `COC(=O)C(Cc1c[nH]cn1)NC(=O)CCNC(=O)CCCCCCCCCCCC[C@]1(C)CCc2c(C)c(O)c(C)c(C)c2O1` (stereo partly drawn) [VECAR, methyl 2-(3-(13-((R)-6-hydroxy-2,5,7,8-tetramethylchroman-2-yl)tridecanamido)propanamido)-3-(1H-imidazol-4-yl)propanoate], the IC50 (commonly the midpoint of a concentration-inhibition curve) in assay [2] is 24.9 ± 1.4 µM.
For the compound `Cc1c(C)c2c(c(C)c1O)CC[C@@](C)(CCC[C@H](C)CCC[C@H](C)CCCC(C)C)O2` [alpha-tocopherol], the half-inhibitory concentration (IC50) in assay [2] was found to be 24.4 ± 1.5 µM.
With `CC(=O)Oc1c(C)c(C)c2c(c1C)CCC(C)(CCC[C@H](C)CCC[C@H](C)CCCC(C)C)O2` (stereo partly drawn) [α-tocopherol acetate], the “affinity of Alpha-TTP” value in assay [1] is on record as 2%.
With `Cc1cc(O)c(C)c2c1O[C@](C)(CCC[C@H](C)CCC[C@H](C)CCCC(C)C)CC2` [β-tocopherol], in assay [1], the “affinity of Alpha-TTP” value is listed as 38%.
`Cc1c(O)cc2c(c1C)O[C@](C)(CCC[C@H](C)CCC[C@H](C)CCCC(C)C)CC2` [γ-tocopherol]: in assay [1], the “affinity of Alpha-TTP” value is reported as 9%.
